# Assay results published in PMC5433425 (PeerJ, 2017).
# Several values for one entry are separate records, joined by “and”; a condition that tells them apart may be missing. Equal values may be shown once.
# Experiments:
# E. coli AG100 [1] = experiment: EtBr efflux by real-time fluorometry; details: 80 µM, + glucose
# E. coli AG100tet = experiment: EtBr accumulation by real-time fluorometry; details: EtBr 2 µg/ml + inhibitor 80 µM
# E. coli AG100 [2] = experiment: Membrane potential assay (BacLight, DiOC2(3))
# E. coli AG100 [3] = experiment: Membrane permeability assay (Live/Dead BacLight); details: for BacLight Live/Dead fluorescence 485/20,528/20 / BacLight Live/Dead fluorescence 485/20,590/35: raw well reading
compound,measurement,setting,value
"CCCOc1ccc(-c2cc(OCCN3CCNCC3)c3ccccc3n2)cc1 [PQQ4R, 4-(2-(piperazin-1-yl)ethoxy)-2-(4-propoxyphenyl) quinolone]",EtBr fluorescence (Channel Cycling A.530/585hp),E. coli AG100 [1]; cycle 23,6.294
same,EtBr fluorescence (Channel Cycling A.530/585hp),E. coli AG100 [1]; cycle 24,6.27
same,EtBr fluorescence (Channel Cycling A.530/585hp),E. coli AG100 [1]; cycle 25,6.171
same,EtBr fluorescence (Channel Cycling A.530/585hp),E. coli AG100 [1]; cycle 26,6.0708
same,EtBr fluorescence (Channel Cycling A.530/585hp),E. coli AG100 [1]; cycle 27,5.906
same,EtBr fluorescence (Channel Cycling A.530/585hp),E. coli AG100 [1]; cycle 28,5.869
same,EtBr fluorescence (Channel Cycling A.530/585hp),E. coli AG100 [1]; cycle 29,5.816
same,EtBr fluorescence (Channel Cycling A.530/585hp),E. coli AG100 [1]; cycle 30,5.711
same,EtBr fluorescence (Channel Cycling A.530/585hp),E. coli AG100 [1]; cycle 31,5.67
same,EtBr fluorescence (Channel Cycling A.530/585hp),E. coli AG100 [1]; cycle 32,5.576
same,EtBr fluorescence (Channel Cycling A.530/585hp),E. coli AG100 [1]; cycle 33,5.469
same,EtBr fluorescence (Channel Cycling A.530/585hp),E. coli AG100 [1]; cycle 34,5.4
same,EtBr fluorescence (Channel Cycling A.530/585hp),E. coli AG100 [1]; cycle 35,5.309
same,EtBr fluorescence (Channel Cycling A.530/585hp),E. coli AG100 [1]; cycle 36,5.284
same,EtBr fluorescence (Channel Cycling A.530/585hp),E. coli AG100 [1]; cycle 37,5.241
same,EtBr fluorescence (Channel Cycling A.530/585hp),E. coli AG100 [1]; cycle 38,5.208
same,EtBr fluorescence (Channel Cycling A.530/585hp),E. coli AG100 [1]; cycle 39,5.097
same,EtBr fluorescence (Channel Cycling A.530/585hp),E. coli AG100 [1]; cycle 40,5.016
same,EtBr fluorescence (Channel Cycling A.530/585hp),E. coli AG100 [1]; cycle 41,5.035
same,EtBr fluorescence (Channel Cycling A.530/585hp),E. coli AG100 [1]; cycle 42,4.981
same,EtBr fluorescence (Channel Cycling A.530/585hp),E. coli AG100 [1]; cycle 43,4.838
same,EtBr fluorescence (Channel Cycling A.530/585hp),E. coli AG100 [1]; cycle 44,4.747
same,EtBr fluorescence,E. coli AG100tet; cycle 1,9.875
same,EtBr fluorescence,E. coli AG100tet; cycle 2,10.6846
same,EtBr fluorescence,E. coli AG100tet; cycle 3,11.6019
same,EtBr fluorescence,E. coli AG100tet; cycle 4,12.4491
same,EtBr fluorescence,E. coli AG100tet; cycle 5,13.6501
same,EtBr fluorescence,E. coli AG100tet; cycle 6,14.6495
same,EtBr fluorescence,E. coli AG100tet; cycle 7,15.6732
same,EtBr fluorescence,E. coli AG100tet; cycle 8,16.6247
same,EtBr fluorescence,E. coli AG100tet; cycle 9,17.8761
same,EtBr fluorescence,E. coli AG100tet; cycle 10,18.9066
same,EtBr fluorescence,E. coli AG100tet; cycle 11,20.4282
same,EtBr fluorescence,E. coli AG100tet; cycle 12,21.7393
same,EtBr fluorescence,E. coli AG100tet; cycle 13,23.4754
same,EtBr fluorescence,E. coli AG100tet; cycle 14,25.1013
same,EtBr fluorescence,E. coli AG100tet; cycle 15,27.2614
same,EtBr fluorescence,E. coli AG100tet; cycle 16,29.2172
same,EtBr fluorescence,E. coli AG100tet; cycle 17,32.322
same,EtBr fluorescence,E. coli AG100tet; cycle 18,34.6681
same,EtBr fluorescence,E. coli AG100tet; cycle 19,38.0364
same,EtBr fluorescence,E. coli AG100tet; cycle 20,40.8691
same,EtBr fluorescence,E. coli AG100tet; cycle 21,44.3636
same,EtBr fluorescence,E. coli AG100tet; cycle 22,47.9426
same,EtBr fluorescence,E. coli AG100tet; cycle 23,51.4641
same,EtBr fluorescence,E. coli AG100tet; cycle 24,55.2307
same,EtBr fluorescence,E. coli AG100tet; cycle 25,58.9315
same,EtBr fluorescence,E. coli AG100tet; cycle 26,63.4348
same,EtBr fluorescence,E. coli AG100tet; cycle 27,67.7728
same,EtBr fluorescence,E. coli AG100tet; cycle 28,71.5821
same,EtBr fluorescence,E. coli AG100tet; cycle 29,76.2698
same,EtBr fluorescence,E. coli AG100tet; cycle 30,79.495
same,membrane depolarization,E. coli AG100 [2]; 80 µM,83%
same,membrane depolarization,E. coli AG100 [2]; 160 μM (1/4 MIC),85%
same,membrane depolarization,E. coli AG100 [2]; 320 μM (1/2 MIC),89%
same,membrane depolarization,E. coli AG100 [2]; 640 μM (MIC),91%
same,"BacLight Live/Dead fluorescence 485/20,528/20",E. coli AG100 [3]; 80 uM,153 and 118
same,"BacLight Live/Dead fluorescence 485/20,590/35",E. coli AG100 [3]; 80 uM,38 and 30
same,"BacLight Live/Dead fluorescence 485/20,528/20",E. coli AG100 [3]; 160 uM,278 and 253
same,"BacLight Live/Dead fluorescence 485/20,590/35",E. coli AG100 [3]; 160 uM,85 and 82
same,"BacLight Live/Dead fluorescence 485/20,528/20",E. coli AG100 [3]; 320 uM,277 and 252
same,"BacLight Live/Dead fluorescence 485/20,590/35",E. coli AG100 [3]; 320 uM,87 and 78
same,"BacLight Live/Dead fluorescence 485/20,528/20",E. coli AG100 [3]; 640 uM,160 and 178
same,"BacLight Live/Dead fluorescence 485/20,590/35",E. coli AG100 [3]; 640 uM,79 and 82
same,membrane permeability increase / membrane permeation,"E. coli AG100 [3]; AG100, 80 µM",4%
same,effect on cell membrane integrity,"E. coli AG100 [3]; AG100, 80 µM (≈1/8 MIC), 1 h",did not alter
same,membrane permeation,"E. coli AG100 [3]; AG100, 160 μM (1/4 MIC)",22%
same,membrane permeation,"E. coli AG100 [3]; AG100, 320 μM (1/2 MIC)",28%
same,membrane permeation,"E. coli AG100 [3]; AG100, 640 μM (MIC)",50%
same,reduction of membrane integrity,"E. coli AG100 [3]; AG100, half MIC, 1 h",28%
